Assay results published in ChEMBL document CHEMBL3881521, “Alpha-9 integrin antagonists and anti-inflammatory compositions therof” (2003).
Activity calls are given as the source filed them. The rule behind the calls is not given here. *1 amine or outer side, *2 acyl side, *3 side chain or, on linkers, in order; H or OH if unused. Where a SMILES comes first, the peptide text is derived from it. Side-chain parts run from the residue outwards. [ ]: non-standard residue; d: D form. The star is where a group is joined. Tos = Cc1ccc(S(=O)(=O)*)cc1; NMeA = CN[C@@H](C)C(=O)O; CO = O=C([*:1])[*:2]; Sar = CNCC(=O)O

Tests used:
Format in all cases: cell-based
SW480 [1] = test: Selectivity for integrin alpha9beta1 (unknown origin) expressed in SW480 cells over integrin alpha4beta7 (unknown origin); settings: Homo sapiens
[2] = target: Integrin alpha-4/beta-1 (Homo sapiens) (UniProt P05556+P13612); test: Inhibition of C-terminal human lgG1 heavy chain constant region tagged recombinant soluble VCAM-1 binding to integrin alpha4beta1 in human Jurkat cells incubated for 30 mins by FACS based 15/7 antibody assay
[3] = target: ITGB1-ITGA9 complex (Homo sapiens) (UniProt P05556+Q13797); test: Antagonist activity against integrin alpha9beta1 (unknown origin) expressed in SW480 cells assessed as inhibition of integrin alpha9-dependent cell adhesion to tenascin by binding saturation assay
SW480 [4] = test: Selectivity for integrin alpha9beta1 (unknown origin) expressed in SW480 cells over integrin alpha5beta1 (unknown origin); settings: Homo sapiens

| SMILES | Selectivity ratio (SW480 [1]) | inhibition [2] | inhibition [3] | Selectivity ratio (SW480 [4]) |
| --- | --- | --- | --- | --- |
| Cc1ccc(S(=O)(=O)N2CCC[C@H]2C(=O)N[C@@H](Cc2ccc(OC(=O)N3CCNCC3)cc2)C(=O)O)cc1 | 100 | Active | Active | 100 |
| Cc1ccc(S(=O)(=O)N2CS(=O)(=O)C(C)(C)[C@@H]2C(=O)N[C@@H](Cc2ccc(OCCCN(C)C)cc2)C(=O)O)cc1 | 100 | Active | Active | 100 |
| Cc1ccc(S(=O)(=O)N2CCS(=O)(=O)C[C@@H]2C(=O)N[C@@H](Cc2ccc(OC(=O)N(C)C)cc2)C(=O)O)cc1 | 100 | Active | Active | 100 |
| Cc1ccc(S(=O)(=O)N2CS(=O)(=O)C(C)(C)[C@@H]2C(=O)N[C@@H](Cc2ccc(OC(=O)N(C)C)cc2)C(=O)O)cc1 | 100 | Active | Active | 100 |
| Cc1ccc(S(=O)(=O)N(C)[C@@H](C)C(=O)N[C@@H](Cc2ccc(OC(=O)N(C)C)cc2)C(=O)O)cc1 (Tos-[NMeA]-Tyr([CO-NMe2])-OH) | 100 | Active | Active | 100 |
| Cc1ccc(S(=O)(=O)N2CCC[C@H]2C(=O)N[C@@H](Cc2ccc(OC(=O)N(C)C)cc2)C(=O)O)cc1 (Tos-Pro-Tyr([CO-NMe2])-OH) | 100 | Active | Active | 100 |
| CN(C)C(=O)Oc1ccc(C[C@H](NC(=O)[C@@H]2CCCN2S(=O)(=O)c2cnn(C)c2)C(=O)O)cc1 | 100 | Active | Active | 100 |
| Cc1ccc(S(=O)(=O)N(C)CC(=O)N[C@@H](Cc2ccc(OC(=O)N(C)C)cc2)C(=O)O)cc1 (Tos-[Sar]-Tyr([CO-NMe2])-OH) | 100 | Active | Active | 100 |
| Cc1ccc(S(=O)(=O)N2CCC[C@H]2C(=O)N[C@@H](Cc2ccc(OC(=O)N3CCN(C)CC3)cc2)C(=O)O)cc1 | 100 | Active | Active | 100 |
